Tests used:
Format in all cases: in vivo
[1] = tested on: fig-leafed goosefoot; test: Test Example 3: weedkilling efficacy through soil treatment; M: fig-leafed goosefoot; conditions: soil treatment, treatment dosage 315 g/ha
How it was run: (§1)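 Crop and weed responses were judged three weeks after a uniform surface spray of the water-diluted emulsion at the given g/ha rate. Seeds sat beneath about 1.5 cm of sterilized diluvial soil, and boxes stood in a greenhouse at 25 to 30° C.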

[2] = tested on: oval-leafed pondweed; test: Test Example 2: weedkilling efficacy, growth period weed treatment in the submerged state; C: oval-leafed pondweed; conditions: treatment dosage 252 g/ha
How it was run: (§2)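 Seedlings at 1-2 leaves in 4 cm-deep submerged alluvial soil received emulsion formulations on the water surface, dosed per hectare; effects were judged 3 weeks on.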

[3] = tested on: chickweed; test: Test Example 3: weedkilling efficacy through soil treatment; N: chickweed; conditions: soil treatment, treatment dosage 315 g/ha
How it was run: as §1

[4] = tested on: soybean; test: Test Example 3: soil treatment, effect on crop; d: soybean; conditions: soil treatment, treatment dosage 315 g/ha
How it was run: as §1

[5] = tested on: directly sown rice; test: Test Example 3: soil treatment, effect on crop; b: directly sown rice; conditions: soil treatment, treatment dosage 315 g/ha
How it was run: as §1

[6] = tested on: barnyard grass; test: Test Example 1: weedkilling efficacy, preemergent weed treatment in the submerged state; A: barnyard grass; conditions: treatment dosage 252 g/ha
How it was run: (§3)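 Submerged pre-emergence treatment, water-surface application of compound emulsion at g/ha dosages; 4 cm flooded alluvial soil, weeds sown and 2.5-leaf rice transplanted same day. Rated after 3 weeks, greenhouse.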

[7] = tested on: green foxtail; test: Test Example 3: weedkilling efficacy through soil treatment; E: green foxtail; conditions: soil treatment, treatment dosage 315 g/ha
How it was run: as §1

[8] = tested on: redroot pigweed; test: Test Example 3: weedkilling efficacy through soil treatment; L: redroot pigweed; conditions: soil treatment, treatment dosage 315 g/ha
How it was run: as §1

[9] = tested on: Indian mallow; test: Test Example 3: weedkilling efficacy through soil treatment; K: Indian mallow; conditions: soil treatment, treatment dosage 315 g/ha
How it was run: as §1

[10] = tested on: catchweed; test: Test Example 3: weedkilling efficacy through soil treatment; O: catchweed; conditions: soil treatment, treatment dosage 315 g/ha
Source text: Weedkilling Efficacy Test Through Soil Treatment
Sterilized diluvial soil was introduced into 21 cm long, 13 cm wide, 7 cm deep plastic boxes, and seeds of crabgrass, green foxtail, barnyard grass, wild oat, black-grass, Italian ryegrass, common wind-grass, Indian mallow, redroot pigweed, fig-leafed goosefoot, chickweed, catchweed, birds-eye speedwell, corn, soybean, rice, wheat, beet and rapeseed were each spot-sown, and covered with about 1.5 cm of soil. Next, emulsions of compounds of the present invention prepared according to compounding example 2 were diluted with water to give the specified dosages, and applied uniformly onto the soil surface with a small sprayer. The plants were grown by placing the plastic boxes in a greenhouse at 25 to 30° C., and 3 weeks after the pesticide treatment the effect on each type of plant was investigated on the basis of the assessment criteria of test example 1.
A: barnyard grass, B: bulrush, C: oval-leafed pondweed, D: crabgrass, E: green foxtail, F: barnyard grass, G: wild oat, H: black-grass, I: Italian ryegrass, J: common wind-grass, K: Indian mallow, L: redroot pigweed, M: fig-leafed goosefoot, N: chickweed, O: catchweed, p: birds-eye speedwell, a: transplanted rice, b: directly sown rice, c: corn, d: soybean, e: wheat, f: beet, g: rapeseed
Further, pesticide dosage (g/ha) indicates the concentration regulated such that treatment was with only the stated number of grams (g), when calculated per hectare (ha).

[11] = tested on: black-grass; test: Test Example 3: weedkilling efficacy through soil treatment; H: black-grass; conditions: soil treatment, treatment dosage 315 g/ha
How it was run: as §1

[12] = tested on: crabgrass; test: Test Example 3: weedkilling efficacy through soil treatment; D: crabgrass; conditions: soil treatment, treatment dosage 315 g/ha
How it was run: as §1

[13] = tested on: beet; test: Test Example 3: soil treatment, effect on crop; f: beet; conditions: soil treatment, treatment dosage 315 g/ha
How it was run: as §1

[14] = tested on: barnyard grass; test: Test Example 2: weedkilling efficacy, growth period weed treatment in the submerged state; A: barnyard grass; conditions: treatment dosage 252 g/ha
How it was run: as §2

[15] = tested on: wild oat; test: Test Example 3: weedkilling efficacy through soil treatment; G: wild oat; conditions: soil treatment, treatment dosage 315 g/ha
How it was run: as §1

[16] = tested on: corn; test: Test Example 3: soil treatment, effect on crop; c: corn; conditions: soil treatment, treatment dosage 315 g/ha
How it was run: as §1

[17] = tested on: wheat; test: Test Example 3: soil treatment, effect on crop; e: wheat; conditions: soil treatment, treatment dosage 315 g/ha
How it was run: as §1

[18] = tested on: transplanted rice; test: Test Example 1: preemergent weed treatment in the submerged state, effect on crop; a: transplanted rice; conditions: treatment dosage 252 g/ha
How it was run: as §3

[19] = tested on: Italian ryegrass; test: Test Example 3: weedkilling efficacy through soil treatment; I: Italian ryegrass; conditions: soil treatment, treatment dosage 315 g/ha
How it was run: as §1

[20] = tested on: oval-leafed pondweed; test: Test Example 1: weedkilling efficacy, preemergent weed treatment in the submerged state; C: oval-leafed pondweed; conditions: treatment dosage 252 g/ha
How it was run: as §3

[21] = tested on: bulrush; test: Test Example 1: weedkilling efficacy, preemergent weed treatment in the submerged state; B: bulrush; conditions: treatment dosage 252 g/ha
How it was run: as §3

[22] = tested on: bulrush; test: Test Example 2: weedkilling efficacy, growth period weed treatment in the submerged state; B: bulrush; conditions: treatment dosage 252 g/ha
How it was run: as §2

[23] = tested on: birds-eye speedwell; test: Test Example 3: weedkilling efficacy through soil treatment; p: birds-eye speedwell; conditions: soil treatment, treatment dosage 315 g/ha
How it was run: as §1

| SMILES | M: fig-leafed goosefoot, weedkilling efficacy grade [1] | C (oval-leafed pondweed) weedkilling efficacy grade [2] | N: chickweed, weedkilling efficacy grade [3] | d: soybean, effect on crop grade [4] | b: directly sown rice, effect on crop grade [5] | A: barnyard grass, weed kill grade [6] | E: green foxtail, weedkilling efficacy grade [7] | L: redroot pigweed, weedkilling efficacy grade [8] | K: Indian mallow, weedkilling efficacy grade [9] | O: catchweed, weedkilling efficacy grade [10] | H: black-grass, weedkilling efficacy grade [11] | D: crabgrass, weedkilling efficacy grade [12] | f: beet, effect on crop grade [13] | A (barnyard grass) weedkilling efficacy grade [14] | G: wild oat, weedkilling efficacy grade [15] | c: corn, effect on crop grade [16] | e: wheat, effect on crop grade [17] | a: transplanted rice, effect on crop grade [18] | I: Italian ryegrass, weedkilling efficacy grade [19] | C: oval-leafed pondweed, weed kill grade [20] | further results |
| --- | --- | --- | --- | --- | --- | --- | --- | --- | --- | --- | --- | --- | --- | --- | --- | --- | --- | --- | --- | --- | --- |
| CC(C)(C(=O)Nc1cccc(I)n1)N1COCN(c2ccccc2)C1=O [A-2-11] | 3 (weed kill ratio 40% or more, less than 70%) | 3 (weed kill ratio 40% or more, less than 70%) | 4 (weed kill ratio 70% or more, less than 90%) | 0 (weed kill ratio 5% or less (practically no effect)) | 3 (weed kill ratio 40% or more, less than 70%) | 5 (weed kill ratio 90% or more, (practically complete withering)) | 5 (weed kill ratio 90% or more, (practically complete withering)) | 0 (weed kill ratio 5% or less (practically no effect)) | 0 (weed kill ratio 5% or less (practically no effect)) | 2 (weed kill ratio 20% or more, less than 40%) | 5 (weed kill ratio 90% or more, (practically complete withering)) | 5 (weed kill ratio 90% or more, (practically complete withering)) | 2 (weed kill ratio 20% or more, less than 40%) | 4 (weed kill ratio 70% or more, less than 90%) | 2 (weed kill ratio 20% or more, less than 40%) | 0 (weed kill ratio 5% or less (practically no effect)) | 1 (weed kill ratio 5% or more, less than 20%) | 0 (weed kill ratio 5% or less (practically no effect)) | 5 (weed kill ratio 90% or more, (practically complete withering)) | 5 (weed kill ratio 90% or more, (practically complete withering)) | B: bulrush, weed kill grade [21]: 5 (weed kill ratio 90% or more, (practically complete withering)); B (bulrush) weedkilling efficacy grade [22]: 5 (weed kill ratio 90% or more, (practically complete withering)); P: birds-eye speedwell, weedkilling efficacy grade [23]: 4 (weed kill ratio 70% or more, less than 90%) |
| Cc1ccnc(NC(=O)C(C)(C)N2COCN(c3ccccc3)C2=O)c1 [A-2-37] | 3 (weed kill ratio 40% or more, less than 70%) | 3 (weed kill ratio 40% or more, less than 70%) | 1 (weed kill ratio 5% or more, less than 20%) | 0 (weed kill ratio 5% or less (practically no effect)) | 2 (weed kill ratio 20% or more, less than 40%) | 5 (weed kill ratio 90% or more, (practically complete withering)) | 4 (weed kill ratio 70% or more, less than 90%) | 1 (weed kill ratio 5% or more, less than 20%) | 0 (weed kill ratio 5% or less (practically no effect)) | 0 (weed kill ratio 5% or less (practically no effect)) | 3 (weed kill ratio 40% or more, less than 70%) | 5 (weed kill ratio 90% or more, (practically complete withering)) | 0 (weed kill ratio 5% or less (practically no effect)) | 5 (weed kill ratio 90% or more, (practically complete withering)) | 3 (weed kill ratio 40% or more, less than 70%) | 1 (weed kill ratio 5% or more, less than 20%) | 0 (weed kill ratio 5% or less (practically no effect)) | 0 (weed kill ratio 5% or less (practically no effect)) | 5 (weed kill ratio 90% or more, (practically complete withering)) | 5 (weed kill ratio 90% or more, (practically complete withering)) | B: bulrush, weed kill grade [21]: 5 (weed kill ratio 90% or more, (practically complete withering)); B (bulrush) weedkilling efficacy grade [22]: 5 (weed kill ratio 90% or more, (practically complete withering)); P: birds-eye speedwell, weedkilling efficacy grade [23]: 5 (weed kill ratio 90% or more, (practically complete withering)) |

— patent US9738634B2, “Heterocyclic amide compound and herbicide” (SYNGENTA PARTICIPATIONS AG, priority 2013, dated 2017)
